Patent publication US20060025377A1, “Inhibitor of angiogenesis and kit for treating cancer comprising the inhibitor” (priority 2002, published 2006)

How the values were obtained:
[1] = system: wound region of rabbit ears (granulation tissue, capillaries); assay: In vivo wound healing assay (rabbit ear wounds); design: species or system New Zealand White rabbits; conditions: for Area of granulation tissue / Number of blood vessels / increment of the area of granulation tissue, in words / increment of the number of blood vessels, in words: 5 μM; for Area of granulation tissue / Number of blood vessels: spotted or injected intradermally to wound, negative control = 100%; for increment of the area of granulation tissue, in words / increment of the number of blood vessels, in words: comment on Table 1
Description: Female New Zealand White rabbits (body weight 2.0 kg) were used as experimental animals in this assay. PBS solution containing 0.1% BSA (BSA-PBS solution) was prepared as control solution for negative control group (comparative example 1). sphingosylphosphorylcholine (comparative example 2), phytosphingosine (comparative example 3), N-acethylphytosphingosine (comparative example 4) as positive control group, and tetraacetyl phytosphingosine (example 1) were dissolved in ethanol or methanol respectively. Each portion of the solutions was added to silicone glass tube. Then, it was charged with N2 gas, and added 0.1% BSA-PBS solution. After coupling them with water sonicator and vortex, these solutions were spotted on and injected intradernally to wound region of experimental animals. At the same time, to study an effect of the angiogenesis as concentrations of tetraacethylsphingosine, the animal was treated with 0.1 μM, 1 μM, 2 μM and 5 μM of tetraacethylsphingosine, and campared with the results. Experimental animals were put into special stainless cages which was designed suitably to assay experimental animals, anesthetized by injecting ketanine (3-4 mg/kg) intramuscularly. The hair and corneous tissue of innerside of both ears were removed with shaving and washing, and then were disinfected with 70% ethanol. Four wound regions per ear were formed by using 6 mm punch for sldn histological examination (Stiefel, Germany) under sterile condition if possible, and each wound region was spotted or injected intradennally 30-50 μl of the control solution or each treatment material. Wound regions were sealed with cathereep (Nichiban Co., Tokyo Japan) which was cut in size which are greater than that of wound region to prevent contamination of the wound regions and formation of crust. Then, the wound regions were protected with 2×2 gauze, and ears of rabbit were bandaged with elastopore (Nichiban Co., Tokyo Japan). Subsequently, the rabbits were bred in a cage per a rabbit. After 48 hrs, same procedure was repeated. On 4 days and 8 days after forming wound regions, sacrificing the rabbits and treating tissue for histological study. For histological study, wound tissues were fixed with 10% formalin, cut it in half longitudinally and made paraffin block. Then, approximately 5 μm of segment was made, attached it to slide and stained with hematoxylin and eosin to observe a change of epidermis and dermis, and stained with Massons Trichrome to observe a degree of collagen formation of granulation tissue.
First, stained tissue specimen was calibrated with ocular micrometer of optical microscope for image analysis. Then, After photographing each histological change aspects with digital camera under 40× and 100× objective lens and saving them on computer (Pentium III), image analysis was carried out with Scion Image for Windows software which was provided by (C) 2000 Scion corporation as follows: that is, degree of epidermis migration could be determined by measuring the distance from left to right boundary of wound, and thickness of newly formed epidermis could be determined by measuring the thickness of three spots in 1 mm of pitch and averaging measured values. To compare with degree of granulation tissue formation of dermis, three methods were used: 1) A method of measuring total area of newly formed granulation tissue and comparing with it; 2) A method of counting the number of cells such as fibroblast presented in six spots of center region of wound under high magnification (100×) and comparing with it; and 3) A method of determining degree of angiogenesis by counting the number of capillaries in granulation tissue in a same way as described above. If there was eschar, it wasn't determined. The data obtained from the negative control group, the positive control group and the experinental group were analyzed statistically by carrying out paired student's t test. […]

[2] = system: HUVEC (human umbilical vein endothelial cell); assay: Angiogenesis test of HUVEC (tube formation test); format: cell-based; conditions: FIG. 4 and FIG. 5
Description: Above suspension procedure was repeated twice.
Matrigel was prepared as follows: First, collagen solution was prepared by mixing commercially available acid-soluble porcine type I collagen (3.0 mg/ml), 5× DMEM and buffer (0.05 N NaOH, 2.2% NaHCO3, 200 mM HEPES; 7:2:1), loaded to 24 well or 96 well (100-300 μl/well) dividedly, and then incubated for approximately 10 mins to form a gel due to polymerization of collagen. Primary culture was carried to obtain HUVEC (those which were passaged five times), removed cells at 37° C., washed cells with PBS, detached cells with trypsin/EDTA, loaded cells to wells (4-6×10^4 cells/well), and then fiuther incubated for 12-18 hrs.

endothelial cells = assay: Migration assay of endothelial cells (Transwell); format: cell-based; conditions: 0.1 μM, 1 μM and 5 μM; 2 hrs; fewer migrated cells with increasing concentration; FIG. 6 and FIG. 7
Description: Transwell membranes were coated with 0.2% gelatin, and then were left for 12 hrs at 4° C. The membrane for control group was treated with BSA-PBS as described in the above examples, whereas the membranes for experimental group were treated with 0.1 μM, 1 μM and 5 μM of tetraacetylphytosphingosine solution according to the present invention respectively as described in the above examples. After incubating these membranes for 2 hrs, staining them with Diff Quick solution, and then observing them on slide glass.

| Compound | Area of granulation tissue [1] [%] | Number of blood vessels [1] [%] | increment of the area of granulation tissue, in words [1] | increment of the number of blood vessels, in words [1] | number of blood vessels (angiogenesis), in words ([1]; 0.1 μM, 1 μM, 2 μM and 5 μM, 4 days after treatment, vs negative control, FIG. 1) | area of granulation tissue, in words ([1]; 0.1 μM, 1 μM, 2 μM and 5 μM, 4 days after treatment, vs negative control, FIG. 2) | formation of blood vessels (tube formation), in words ([2]; 0.1 μM) | formation of blood vessels (tube formation), in words ([2]; 1 μM) | migration of endothelial cells, in words (endothelial cells) |
| --- | --- | --- | --- | --- | --- | --- | --- | --- | --- |
| CCCCCCCCCCCCCC[C@@H](O)[C@@H](O)[C@@H](N)CO [PS, phytosphingosine] | 112 | 106 | – | – | – | – | – | – | – |
| CCCCCCCCCCCCC/C=C/[C@@H](O)[C@@H](N)COP(=O)([O-])OCC[N+](C)(C)C [SPC, sphingosylphosphorylcholine] | 151 | 148 | prompted increment | prompted increment | – | – | – | – | – |
| CCCCCCCCCCCCCC[C@@H](O)[C@@H](O)[C@H](CO)NC(C)=O [NAPS, N-acethylphytosphingosine] | 212 | 96 | – | – | – | – | – | – | – |
| tetraacetylphytosphingosine [TAPS] | 76 | 31 | inhibited increment | inhibited increment | inhibited angiogenesis greatly | decreased the area of granulation tissue | inhibited effectively a formation of blood vessels | inhibited nearly completely a formation of blood vessels | migration of endothelial cells were inhibited |
